Data from ChEMBL document CHEMBL3988442, “University of Dundee, Small-Polar-MMV Screening Library” (2021).
pIC50: −log10 of the molar value.

Target: Lysine--tRNA ligase (Plasmodium falciparum (isolate 3D7), UniProt Q8IDJ8)
Assay: Pf-KRS-1 (Lysyl-RNA Synthetase-1, KRS-1, cytosolic KRS) from Plasmodium falciparum. Inhibitor assay, 384 well plate, luminescence read.
Format: functional

Lysine--tRNA ligase, sequence (Q8IDJ8 whole entry): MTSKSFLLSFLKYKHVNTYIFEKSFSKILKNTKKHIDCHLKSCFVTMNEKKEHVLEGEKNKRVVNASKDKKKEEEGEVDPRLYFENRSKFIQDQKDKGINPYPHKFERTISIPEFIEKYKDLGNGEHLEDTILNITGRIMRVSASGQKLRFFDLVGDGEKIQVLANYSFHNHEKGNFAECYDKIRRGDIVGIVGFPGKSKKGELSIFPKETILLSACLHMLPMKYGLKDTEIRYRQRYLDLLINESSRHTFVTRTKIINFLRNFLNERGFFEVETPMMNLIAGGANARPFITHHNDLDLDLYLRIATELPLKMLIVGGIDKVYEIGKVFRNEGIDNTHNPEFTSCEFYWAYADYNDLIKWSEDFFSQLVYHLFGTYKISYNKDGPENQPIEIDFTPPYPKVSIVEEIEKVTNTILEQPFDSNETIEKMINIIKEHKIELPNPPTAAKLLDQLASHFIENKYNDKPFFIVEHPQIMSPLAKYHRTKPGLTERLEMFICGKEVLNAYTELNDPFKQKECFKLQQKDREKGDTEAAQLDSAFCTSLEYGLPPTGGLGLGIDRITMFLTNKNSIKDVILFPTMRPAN

| SMILES | pIC50 |
| --- | --- |
| Cc1nc[nH]c1CN1CCn2nc(CN3Cc4ccccc4C3)cc2C1 | < 4.30 |
| c1ccc(SCCN2CCCC(Cn3ccnc3)C2)cc1 (centres undefined) | < 4.30 |
| O=c1c(CN2CCCCC2)coc2ccc(Cl)cc12 | < 4.30 |
| O=C(Cc1ccsc1)N1CCCC(c2n[nH]c3ncccc23)C1 (centres undefined) | < 4.30 |
| NS(=O)(=O)c1ccc(NC(=O)CSc2ccc3c(c2)CCC3)cc1 | < 4.30 |
| COc1cc(NC(=O)N(C)Cc2ccc(Br)o2)ncn1 | < 4.30 |
| Cc1nnc(NC(=O)CN2CCOC(Cn3cccn3)C2)s1 (centres undefined) | < 4.30 |
| Cn1cc(NC(=O)c2ccccn2)cc(Br)c1=O | < 4.30 |
| Cc1nc(N(C)C)ncc1C(=O)NCCc1csc(-c2ccncc2)n1 | < 4.30 |
| Clc1snnc1CN1CCCCC1Cn1cncn1 (centres undefined) | < 4.30 |
| O=S(=O)(NC1CCC12CCN(CC1CCOCC1)CC2)c1ccccc1 (centres undefined) | < 4.30 |
| CSc1cc2c(cc1NC(=O)NCC(C)(C)C(N)=O)OCCO2 | < 4.30 |
| O=C(Nc1cccnc1)[C@H]1C[C@@H]2CCN(c3nncs3)C[C@H]2O1 | < 4.30 |
| c1csc(CN2CCCN(c3ncnc4[nH]ccc34)CC2)c1 | < 4.30 |
| CN(C)C(=O)N1C[C@@H]2CC[C@H](C1)N(C/C=C/c1ccc(F)cc1)C2 | < 4.30 |
| COc1cc(CNC(C)Cn2ccnc2)cc2c1OCO2 (centres undefined) | < 4.30 |
| O=C(NCc1cccs1)NCC(O)(c1cccs1)C1CC1 (centres undefined) | < 4.30 |
| O=C(NCc1ccc(Cl)s1)c1ccc(N2CCOC2=O)cc1 | < 4.30 |
| NC(=O)c1ccc(CN2C(=O)C3(CCNCC3)Nc3ccccc32)cc1 | < 4.30 |
| O=C(C[S+]([O-])Cc1c(Cl)cccc1Cl)N1CCc2sccc2C1 (centres undefined) | < 4.30 |
| COc1c(C)cnc(CN(C)C(=O)c2ccccc2O)c1C | < 4.30 |
| NC(=O)c1csc(N2CCCC(c3n[nH]c(=O)n3-c3ccccc3)C2)n1 (centres undefined) | < 4.30 |
| COCCC(=O)N1CCC2(CC1)CC(c1ccccc1)CN(C1CC1)C2 (centres undefined) | < 4.30 |
| Cc1nnc(NCCC(=O)N(C)Cc2ccccc2)c(C#N)c1C | < 4.30 |
| CC(C)c1nccn1C1CCCN(C(=O)c2ccc3c(c2)COC3)C1 (centres undefined) | < 4.30 |

| SMILES | pIC50 |
| --- | --- |
| CC(NC(=O)NCCCOc1ccccc1F)c1nncn1C (centres undefined) | < 4.30 |
| CC(C)NC(=O)N1CCc2c(CNc3ncccn3)cncc2C1 | < 4.30 |
| O=c1ccc2c(n1Cc1cccnc1)CCC(NCc1cccnc1)C2 (centres undefined) | < 4.30 |
| O=C(NCC1(O)CCCCC1)c1coc(COc2cccc(F)c2)n1 | < 4.30 |
| FC(F)(F)COCCN1CCc2cncnc2C1 | < 4.30 |
| N#CCc1ccc(OCC(=O)N2CCCC(n3cccn3)C2)cc1 (centres undefined) | < 4.30 |
| Cc1cc(NC(=O)CCCn2ccnc2C)nc(C(C)C)n1 | < 4.30 |
| CN1C(=O)CC2(CCN(S(=O)(=O)c3cccs3)CC2)c2ccccc21 | < 4.30 |
| CC(O)(CNc1ccc(Cl)c(C#N)n1)c1ccsc1 (centres undefined) | 4.36 |
| COc1cccc(-n2c(C)cc(C(=O)NS(C)(=O)=O)c2C)c1 | < 4.30 |
| Cc1cccc(OCCCNC(=O)NC(C)c2nncn2C)c1 (centres undefined) | < 4.30 |
| Cc1ccc(CN2CCCN(Cc3cscn3)CC2)cc1 | < 4.30 |
| Cc1cc(CN(C)C(=O)c2cccc(N3CCCC3=O)c2)no1 | < 4.30 |
| CC1(C)CCN1C(=O)c1cc(F)cc2[nH]cnc12 | < 4.30 |
| Cc1cnc(N2CCN(C)c3ncccc3C2)nc1 | < 4.30 |
| O=C(NCC1(O)CCSCC1)c1ccoc1 | < 4.30 |
| Cc1cc2ccccc2n1CCC(=O)N1CCC[C@H]1C(N)=O | < 4.30 |
| O=C([C@H]1CCCO1)N1CCc2ncnc(NC3CC3)c2CC1 | < 4.30 |
| Cc1ccc(CN2C[C@@H]3CN(CC4CCOCC4)CCO[C@@H]3C2)s1 | < 4.30 |
| COc1ccc(C2CCCN2C(=O)Nc2ccc(OC)nc2)cc1 (centres undefined) | < 4.30 |
| COc1c(C)cnc(CN(C)C(=O)c2cccnc2N(C)C)c1C | < 4.30 |
| CNS(=O)(=O)c1ccc(CNC(=O)NCC2CCC2)cc1 | < 4.30 |
| CCN(Cc1cccc(F)c1)c1ccc2nnnn2n1 | < 4.30 |
| COc1ccc(C(=O)N2CCO[C@H]3[C@@H](OCC4CC4)CC[C@@H]32)cc1F | < 4.30 |
| COc1c(F)ccc(C(=O)N2CC[C@H](CO)[C@@H](O)C2)c1F | < 4.30 |

| SMILES | pIC50 |
| --- | --- |
| CN(C)Cc1cnc2n1CCN(C(=O)Cc1ccc(F)cc1)CC2 | < 4.30 |
| CSc1ncnc(NCc2cccs2)c1C#N | < 4.30 |
| CN(Cc1cccs1)C1CCC[C@@H]2CN(C(=O)c3cccn3C)C[C@H]12 (some centres undefined) | < 4.30 |
| Cc1nnc(N2CCC(CCN(C)C)CC2)c(C#N)c1C | < 4.30 |
| O=C(COCc1ccccc1Cl)N1CCN(c2cnccn2)CC1 | < 4.30 |
| c1cnnc(N2CCCC(NCc3ccncc3)C2)c1 (centres undefined) | < 4.30 |
| CCn1cc2c(n1)C(COCC1CC1)CN(C(=O)c1cc(C)on1)C2 (centres undefined) | < 4.30 |
| C=C(C)Cn1ccc2cc(OC)c(F)cc2c1=O | < 4.30 |
| Cc1noc(C)c1CN1CC[C@H]2[C@H]1CCN2CC1CCOCC1 | < 4.30 |
| Fc1cccc(CN2CCN(Cc3cscn3)CC2)c1 | < 4.30 |
| CN(C)CCO[C@H]1C[C@@H](O)C12CCN(c1nccc3ccccc13)CC2 | < 4.30 |
| O=C(NCc1csc(Br)c1)c1ccncc1 | < 4.30 |
| CCc1ccc(CN2CCN(C(=O)C(C)C)[C@@H]3CS(=O)(=O)C[C@@H]32)cc1 | < 4.30 |
| CCCc1ccc(CN2CCN(c3ncccn3)[C@@H]3CS(=O)(=O)C[C@@H]32)o1 | < 4.30 |
| Cn1ncc2c(=O)[nH]c(CN3CCCC3c3cccs3)nc21 (centres undefined) | < 4.30 |
| O=C1COc2cc(C(=O)NCc3ccc(Cl)s3)ccc2N1 | 4.76 |
| Cc1nc(CN2CCCC(N(C)Cc3nc(CC(C)C)no3)C2)no1 (centres undefined) | < 4.30 |
| Cc1ccc([C@@H]2CN(C(=O)c3cc(C)no3)C[C@H]2NC(=O)C2CC2)cc1 | < 4.30 |
| Cc1noc(C)c1CN1CCOC2(CCCN(c3nncs3)C2)C1 (centres undefined) | < 4.30 |
| Cc1ccc(O)c(CNCC(C)c2nc3ccccc3o2)n1 (centres undefined) | < 4.30 |
| CCCOc1ccc(CNC(=O)N2CCC(C(N)=O)C2)cc1 (centres undefined) | < 4.30 |
| COc1cccc(C(=O)N(C)Cc2ncc(C)c(OC)c2C)c1OC | < 4.30 |
| COc1cc(C2CC(=O)Nc3c2nc2n3CCCC2)cc(OC)c1O (centres undefined) | < 4.30 |
| Cc1nn(C)c(C)c1NC(=O)CN1CCOC(Cn2cccn2)C1 (centres undefined) | < 4.30 |
| CCn1ncc2c1CCCC2NCc1ccc(OC)c(C)c1 (centres undefined) | < 4.30 |

| SMILES | pIC50 |
| --- | --- |
| Cc1nc(NC(C)C)nc2c1CN(Cc1nccn1C)CC2 | < 4.30 |
| CCCn1ccnc1CN1CCC(Oc2ccc(Cl)cc2)(C(=O)O)CC1 | < 4.30 |
| Cc1nnc(NCCC(=O)NCc2ccccc2)c(C#N)c1C | < 4.30 |
| Cc1ccc(C2CCCN2Cc2nc3c(cnn3C)c(=O)[nH]2)cc1C (centres undefined) | < 4.30 |
| O=C(C(O)c1ccccc1Cl)N1CCCN(Cc2cccnc2)CC1 (centres undefined) | < 4.30 |
| Cn1c(=O)c2c(n3ncnc13)NC(=O)CC2c1ccc(F)cc1 (centres undefined) | < 4.30 |
| COc1nccnc1N1CCC2(CC1)[C@H](O)C[C@@H]2OCCN(C)C | < 4.30 |
| O=C([C@@H]1C[C@H]2[C@H](CCN2Cc2nccs2)O1)N1CCOCC1 | < 4.30 |
| Cc1cnn(CCCN2C(=O)CCc3ccccc32)c1 | < 4.30 |
| Cc1cccc2c1nc(CCO)n2-c1ccc(N)nc1 | < 4.30 |
| CC(=O)c1cnc(N(C)Cc2cc(C)cc(C)n2)nc1C | < 4.30 |
| CS(=O)(=O)N1C[C@H](C(=O)Nc2cnccn2)C[C@H]2OCC[C@H]21 | < 4.30 |
| CN1CC(c2ccccc2)CC12CCN(C(=O)c1cccnc1)CC2 (centres undefined) | < 4.30 |
| O=C1COc2ccccc2N1CCCn1cnnn1 | < 4.30 |
| c1ncc2c(n1)CN(CC1CCCCO1)CC2 (centres undefined) | 4.49 |
| c1cnc(N2CCCC(NCc3ccc(-n4ccnc4)cc3)C2)nc1 (centres undefined) | < 4.30 |
| O=c1[nH]c2c(c(=O)n1C1CCCCC1)CCC2Nc1ccccc1 (centres undefined) | < 4.30 |
| Cc1cnn(CCNCC(O)COc2ccc(Cl)cc2)c1 (centres undefined) | < 4.30 |
| Cc1cc(C)c2nc(CN[C@H]3CCCNC3)cc(O)c2c1 | < 4.30 |
| O=C(c1cnccn1)N1C[C@@H](c2ccccc2)[C@@]2(CCNC2=O)C1 | < 4.30 |
| O=C(NCC1CCC1)c1ccnc(-n2ccnc2)c1 | < 4.30 |
| O=C(COCCc1ccccc1)N1CCCC(n2cccn2)C1 (centres undefined) | < 4.30 |
| CNc1ncc2c(n1)CN(C1CCCC1)C2=O | < 4.30 |
| Cc1cc(C)c2nc(CNC3CCNC3=O)cc(O)c2c1 (centres undefined) | < 4.30 |
| COc1c(C)cnc(CN(C)C(=O)c2ccccc2F)c1C | < 4.30 |

| SMILES | pIC50 |
| --- | --- |
| CC(=O)c1cc(CC(=O)N2CCN(S(=O)(=O)c3ccccc3)CC2)cs1 | < 4.30 |
| O=c1[nH]c2c(c(=O)n1C1CCCCC1)CCC2NCCc1ccccc1 (centres undefined) | 5.76 |
| O=C(NCCc1ccco1)Nc1cc(C(F)(F)F)c[nH]c1=O | < 4.30 |
| Cc1noc(C2CCCN(C(=O)c3cc(Cl)ccc3F)C2)n1 (centres undefined) | < 4.30 |
| CC(NC(=O)NCCOc1ccc(Cl)cc1)c1nncn1C (centres undefined) | < 4.30 |
| FC(F)(F)CCc1ccnc(NC2CCOC2)n1 (centres undefined) | < 4.30 |
| CC(C)CN1Cc2nc(N)ncc2C1=O | 4.45 |
| Cc1nc(CN(C)C2CCN(Cc3c(C)noc3C)C2)no1 (centres undefined) | < 4.30 |
| Cc1nc(C)c(C)c(N(C)CCCc2nccn2C)n1 | < 4.30 |
| CCc1cc2cc(OC)c(OC)cc2nc1SCCN1CCCCC1 | < 4.30 |
| FC(F)(F)c1ccc(CN2CCN(Cc3cscn3)CC2)cc1 | < 4.30 |
| O=C(NCCc1ccccn1)C1=NN(c2ccccc2)C(=O)CN1 | < 4.30 |
| O=C(NCC1(O)CCCC1)c1ccc2nsnc2c1 | < 4.30 |
| O=C(O)c1cc(-c2ccncc2F)cc(S(=O)(=O)N2CCCCCC2)c1 | < 4.30 |
| Cc1ncc2c(n1)CN(CC1CCCCO1)CC2 (centres undefined) | 4.44 |
| Cc1nc(CCC(=O)N2Cc3cnc(-c4ccccc4)nc3C2)n[nH]1 | < 4.30 |
| CCOc1ccc(CC(CNC(=O)c2ccc(C)o2)C(N)=O)cc1 (centres undefined) | < 4.30 |
| N#Cc1cccc(CN2CCN(Cc3cscn3)CC2)c1 | < 4.30 |
| COc1cc(OC)nc(N2CCC3(CC2)OCCCC3O)n1 (centres undefined) | < 4.30 |
| Cc1cccc(NC2CCc3c2[nH]c(=O)n(C2CCCCC2)c3=O)c1C (centres undefined) | 5.61 |
| Cn1cc(C(C)(O)CNc2ccc(Cl)c(C#N)n2)cn1 (centres undefined) | < 4.30 |
| CN1C(=O)CC2(CCN(S(=O)(=O)C3CC3)CC2)c2ccccc21 | < 4.30 |
| COCCOc1ccc(NC(=O)N2CCCC2c2cccs2)cn1 (centres undefined) | < 4.30 |
| CCC1CCC(CNC(=O)c2c[nH]c(=O)c(Cl)c2)CC1 (centres undefined) | < 4.30 |
